# In PubChem BioAssay AID180 (DTP/NCI, 2004):
# “And” between values parts separate entries of the source, which are not always exact repeats. Identical values can stand only once.
# Tested on: BDF1 mice, Adenocarcinoma 755 s.c., tumor weight T/C
# Test: NCI In Vivo Anticancer Drug Screen. Data for tumor model Adenocarcinoma 755 (subcutaneous) in B6D2F1 (BDF1) mice
# Conditions: endpoint: mean tumor weight, higher = larger tumour
# How it was run: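 Tumor-bearing mice receive test compound while controls get vehicle alone. Antitumor effect is scored from survival or tumor dimensions as a T/C quotient.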
# [1] = dose: 25.0 mg/kg/injection, schedule: Q01DX011 (ip), vehicle: methylcellulose (MC)
# [2] = dose: 75.0 mg/kg/injection, schedule: Q01DX011 (ip), vehicle: methylcellulose (MC)
# [3] = dose: 30.0 mg/kg/injection, schedule: Q01DX011 (ip), vehicle: carboxymethylcellulose (CMC)
# [4] = dose: 120.0 mg/kg/injection, schedule: Q01DX011 (ip), vehicle: carboxymethylcellulose (CMC)
# [5] = dose: 240.0 mg/kg/injection, schedule: Q01DX011 (ip), vehicle: carboxymethylcellulose (CMC)
structure (smiles),measurement,setting,value
CN(C)C1C(=O)C(C(N)=O)=C(O)C2(O)C(=O)C3=C(O)c4c(O)cccc4C(C)(O)C3C(O)C12 (centres undefined),T/C,"dose: 19.5 mg/kg/injection, schedule: Q01DX011 (ip), vehicle: carboxymethylcellulose (CMC)",78 % of control
same,T/C,"dose: 19.86 mg/kg/injection, schedule: Q01DX011 (ip), vehicle: carboxymethylcellulose (CMC)",106 % of control
same,T/C,"dose: 31.25 mg/kg/injection, schedule: Q01DX011 (ip), vehicle: methylcellulose (MC)",117 % of control
same,T/C,"dose: 39.0 mg/kg/injection, schedule: Q01DX011 (ip), vehicle: carboxymethylcellulose (CMC)",91 % of control
same,T/C,"dose: 50.0 mg/kg/injection, schedule: Q01DX011 (ip), vehicle: water",81 % of control
same,T/C,"dose: 62.4 mg/kg/injection, schedule: Q01DX011 (ip), vehicle: carboxymethylcellulose (CMC)",46 % of control
same,T/C,"dose: 62.5 mg/kg/injection, schedule: Q01DX011 (ip), vehicle: methylcellulose (MC)",69 % of control
same,T/C,"dose: 63.56 mg/kg/injection, schedule: Q01DX011 (ip), vehicle: carboxymethylcellulose (CMC)",119 % of control
same,T/C,"dose: 78.0 mg/kg/injection, schedule: Q01DX011 (ip), vehicle: carboxymethylcellulose (CMC)",95 % of control and 110 % of control
same,T/C,"dose: 79.45 mg/kg/injection, schedule: Q01DX011 (ip), vehicle: carboxymethylcellulose (CMC)",92 % of control and 75 % of control and 87 % of control
same,T/C,"dose: 100.0 mg/kg/injection, schedule: Q01DX011 (ip), vehicle: water",45 % of control
same,T/C,"dose: 104.0 mg/kg/injection, schedule: Q01DX011 (ip), vehicle: carboxymethylcellulose (CMC)",65 % of control
same,T/C,"dose: 105.93 mg/kg/injection, schedule: Q01DX011 (ip), vehicle: carboxymethylcellulose (CMC)",96 % of control and 87 % of control
same,T/C,"dose: 125.0 mg/kg/injection, schedule: Q01DX011 (ip), vehicle: methylcellulose (MC)",73 % of control
same,T/C,"dose: 150.0 mg/kg/injection, schedule: Q01DX011 (ip), vehicle: water",14 % of control
CN1CCN(CCCN2c3ccccc3Sc3ccc(C(F)(F)F)cc32)CC1,T/C,"dose: 22.0 mg/kg/injection, schedule: Q01DX011 (ip), vehicle: saline",32 % of control
O=C(O)CC(Nc1ncnc2nc[nH]c12)C(=O)O (centres undefined),T/C,"dose: 12.0 mg/kg/injection, schedule: Q01DX011 (ip), vehicle: methylcellulose (MC)",105 % of control
same,T/C,[1],98 % of control
same,T/C,"dose: 50.0 mg/kg/injection, schedule: Q01DX011 (ip), vehicle: methylcellulose (MC)",103 % of control
same,T/C,"dose: 100.0 mg/kg/injection, schedule: Q01DX011 (ip), vehicle: methylcellulose (MC)",45 % of control
CC1CCN(C(=O)CCCl)c2ccccc21 (centres undefined),T/C,[1],101 % of control
same,T/C,[2],71 % of control
same,T/C,"dose: 225.0 mg/kg/injection, schedule: Q01DX011 (ip), vehicle: methylcellulose (MC)",82 % of control
Cc1ccc(CSc2ncnc3nc[nH]c23)c2ccccc12,T/C,[2],54 % of control
same,T/C,"dose: 150.0 mg/kg/injection, schedule: Q01DX011 (ip), vehicle: methylcellulose (MC)",33 % of control
same,T/C,"dose: 300.0 mg/kg/injection, schedule: Q01DX011 (ip), vehicle: methylcellulose (MC)",38 % of control
same,T/C,"dose: 600.0 mg/kg/injection, schedule: Q01DX011 (ip), vehicle: methylcellulose (MC)",11 % of control
CC1C[C@@H]2[C@H]([C@@H](O)C[C@@]3(C)[C@H]2CC[C@]3(O)C(=O)CF)[C@@]2(C)CCC(=O)C=C12 (some centres undefined),T/C,"dose: 1.2 mg/kg/injection, schedule: Q01DX011 (sc), vehicle: steriod suspending solution",108 % of control
same,T/C,"dose: 2.5 mg/kg/injection, schedule: Q01DX011 (sc), vehicle: steriod suspending solution",92 % of control
same,T/C,"dose: 8.0 mg/kg/injection, schedule: Q01DX011 (sc), vehicle: steriod suspending solution",82 % of control
same,T/C,"dose: 10.0 mg/kg/injection, schedule: Q01DX011 (sc), vehicle: steriod suspending solution",35 % of control
same,T/C,"dose: 16.0 mg/kg/injection, schedule: Q01DX011 (sc), vehicle: steriod suspending solution",75 % of control
same,T/C,"dose: 20.0 mg/kg/injection, schedule: Q01DX011 (sc), vehicle: steriod suspending solution",30 % of control
same,T/C,"dose: 32.0 mg/kg/injection, schedule: Q01DX011 (sc), vehicle: steriod suspending solution",55 % of control
same,T/C,"dose: 40.0 mg/kg/injection, schedule: Q01DX011 (sc), vehicle: steriod suspending solution",13 % of control
same,T/C,"dose: 170.0 mg/kg/injection, schedule: Q01DX011 (sc), vehicle: steriod suspending solution",5 % of control and 10 % of control
same,T/C,"dose: 340.0 mg/kg/injection, schedule: Q01DX011 (sc), vehicle: steriod suspending solution",9 % of control and 13 % of control
CC(=O)[C@H]1CC[C@H]2[C@@H]3CCC4=CC(=O)C=C[C@]4(C)[C@H]3C(=O)C[C@]12C,T/C,"dose: 66.0 mg/kg/injection, schedule: Q01DX011 (sc), vehicle: steriod suspending solution",62 % of control and 74 % of control
same,T/C,"dose: 132.0 mg/kg/injection, schedule: Q01DX011 (sc), vehicle: steriod suspending solution",37 % of control and 58 % of control
same,T/C,"dose: 264.0 mg/kg/injection, schedule: Q01DX011 (sc), vehicle: steriod suspending solution",25 % of control and 44 % of control
same,T/C,"dose: 528.0 mg/kg/injection, schedule: Q01DX011 (sc), vehicle: steriod suspending solution",28 % of control and 35 % of control
Cn1c(=O)c2c(nc(C(O)(c3ccccc3)c3ccccc3)n2C)n(C)c1=O,T/C,"dose: 40.0 mg/kg/injection, schedule: Q01DX011 (ip), vehicle: methylcellulose (MC)",122 % of control
same,T/C,[2],66 % of control
OC(CBr)C(O)C(O)C(O)CBr (centres undefined),T/C,"dose: 25.0 mg/kg/injection, schedule: Q01DX011 (ip), vehicle: saline",48 % of control
same,T/C,"dose: 50.0 mg/kg/injection, schedule: Q01DX011 (ip), vehicle: saline",64 % of control and 71 % of control
same,T/C,"dose: 100.0 mg/kg/injection, schedule: Q01DX011 (ip), vehicle: saline",66 % of control and 72 % of control
same,T/C,"dose: 200.0 mg/kg/injection, schedule: Q01DX011 (ip), vehicle: saline",38 % of control and 50 % of control
same,T/C,"dose: 400.0 mg/kg/injection, schedule: Q01DX011 (ip), vehicle: saline",29 % of control
CC(=O)OCC1OC(n2c(Br)nc3c(=O)[nH]c(N)nc32)C(OC(C)=O)C1OC(C)=O (centres undefined),T/C,[3],95 % of control
same,T/C,"dose: 60.0 mg/kg/injection, schedule: Q01DX011 (ip), vehicle: carboxymethylcellulose (CMC)",119 % of control
same,T/C,[4],90 % of control
same,T/C,[5],82 % of control
CSc1nc(Cl)c2cc[nH]c2n1,T/C,[3],89 % of control
same,T/C,[4],72 % of control
same,T/C,[5],79 % of control
CCCCN(C)N=Nc1ccc(S(N)(=O)=O)cc1,T/C,"dose: 4.0 mg/kg/injection, schedule: Q01DX011 (ip), vehicle: carboxymethylcellulose (CMC)",91 % of control
same,T/C,"dose: 8.0 mg/kg/injection, schedule: Q01DX011 (ip), vehicle: carboxymethylcellulose (CMC)",90 % of control and 77 % of control
same,T/C,"dose: 31.0 mg/kg/injection, schedule: Q01DX011 (ip), vehicle: carboxymethylcellulose (CMC)",33 % of control
same,T/C,"dose: 32.0 mg/kg/injection, schedule: Q01DX011 (ip), vehicle: carboxymethylcellulose (CMC)",108 % of control and 84 % of control
same,T/C,"dose: 62.0 mg/kg/injection, schedule: Q01DX011 (ip), vehicle: carboxymethylcellulose (CMC)",42 % of control
same,T/C,"dose: 93.0 mg/kg/injection, schedule: Q01DX011 (ip), vehicle: carboxymethylcellulose (CMC)",55 % of control
CC1CC(C)C(=O)C(C(=O)CC2CC(=O)NC(=O)C2)C1 (centres undefined),T/C,"dose: 125.0 mg/kg/injection, schedule: Q01DX011 (ip), vehicle: carboxymethylcellulose (CMC)",67 % of control
N#[N+]c1cnc([O-])[nH]c1=O,T/C,"dose: 1.25 mg/kg/injection, schedule: Q01DX011 (ip), vehicle: carboxymethylcellulose (CMC)",111 % of control
same,T/C,"dose: 1.41 mg/kg/injection, schedule: Q01DX011 (ip), vehicle: carboxymethylcellulose (CMC)",80 % of control
same,T/C,"dose: 1.47 mg/kg/injection, schedule: Q01DX011 (ip), vehicle: carboxymethylcellulose (CMC)",116 % of control
same,T/C,"dose: 2.5 mg/kg/injection, schedule: Q01DX011 (ip), vehicle: carboxymethylcellulose (CMC)",53 % of control
same,T/C,"dose: 2.83 mg/kg/injection, schedule: Q01DX011 (ip), vehicle: carboxymethylcellulose (CMC)",108 % of control
same,T/C,"dose: 2.95 mg/kg/injection, schedule: Q01DX011 (ip), vehicle: carboxymethylcellulose (CMC)",98 % of control
same,T/C,"dose: 5.0 mg/kg/injection, schedule: Q01DX011 (ip), vehicle: carboxymethylcellulose (CMC)",39 % of control
same,T/C,"dose: 5.65 mg/kg/injection, schedule: Q01DX011 (ip), vehicle: carboxymethylcellulose (CMC)",94 % of control
same,T/C,"dose: 5.9 mg/kg/injection, schedule: Q01DX011 (ip), vehicle: carboxymethylcellulose (CMC)",76 % of control
same,T/C,"dose: 11.3 mg/kg/injection, schedule: Q01DX011 (ip), vehicle: carboxymethylcellulose (CMC)",49 % of control
same,T/C,"dose: 1170.0 micrograms/kg/injection, schedule: Q01DX011 (ip), vehicle: carboxymethylcellulose (CMC)",86 % of control
same,T/C,"dose: 2925.0 micrograms/kg/injection, schedule: Q01DX011 (ip), vehicle: carboxymethylcellulose (CMC)",78 % of control
